Measured values taken from patent publication US5962502A, “Polyamidic acid derivatives with antigastrin activity, a method for their preparation, and their pharmaceutical use” (priority 1993, dated 1999).
Values joined by “and” are separate entries in the source; they are usually repeats but may differ in a detail not shown here. Equal entries are not always repeated.

What was measured:
[1] = system: acid secretion induced by pentagastrin; assay: Acid secretion induced by pentagastrin in the anaesthetized rat; format: in vivo; settings: for ED50: iv, 1 h, I.V. bolus, pentagastrin 30 mcg/kg/h, read-out: Activity (ID50), inhibition of the acid secretion induced by pentagastrin; for antigastrin activity relative to the diastereoisomer at the carbon atom (**): pentagastrin-induced acid secretion
Procedure: The activity of the compounds of the invention against gastric secretion performed by means of a mechanism with an antigastrin effect, was examined in vivo in anaesthetized rats with the use of male animals weighing about 200 g. Gastric secretion was stimulated with pentagastrin and Lai's method [Gut 5, (1964), 327-341 ] was used, with slight modification.
After tracheotomy, the oesophagus and duodenum were cannulated. A tepid solution (37° C.) of 0.25 mM NaOH was perfused and was passed through the stomach by means of a peristaltic pump at a constant flow-rate of 1 ml/minute. After stabilization for 20 minutes, the stimulant, dissolved in a physiological solution, was perfused for 120 minutes at a dose of 30 mcg/kg/h, in a volume of 0.95 ml/hour. After perfusion for 60 minutes (the basal stimulation), the product under test was administered intravenously (I.V.) as a bolus and perfusion of the stimulant was continued for a further 60 minutes. The acid secretion was recorded continuously as a function of time.
The activity of the product was evaluated as the percentage reduction of secreted acidity after the administration of the product, in comparison with the basal acidity measured during the first 60 minutes of collection in the presence of pentagastrin alone.
The antagonistic compounds tested were administered in various doses so that an ID50, that is, the dose (in mg/kg I.V.) which could inhibit the effect of pentagastrin by 50%, could be calculated.

central CCK-B receptor = biological target: T1, central CCK-B receptor (Cavia porcellus, UniProt H0VZC5); assay: Inhibition of the binding of [3-H][N-methyl-N-leucine]CCK-8 to guinea-pig cortical membranes; settings: for times more active than the corresponding diastereoisomer at the carbon atom (**): binding, guinea-pig cortex; for IC50: 150 minutes at 25° C.
T1 construct: Cerebral cortices of male white guinea-pigs were thus used; from tissue; host or cells: cerebral cortex membranes of male white guinea-pigs
T1 sequence (H0VZC5 1-426): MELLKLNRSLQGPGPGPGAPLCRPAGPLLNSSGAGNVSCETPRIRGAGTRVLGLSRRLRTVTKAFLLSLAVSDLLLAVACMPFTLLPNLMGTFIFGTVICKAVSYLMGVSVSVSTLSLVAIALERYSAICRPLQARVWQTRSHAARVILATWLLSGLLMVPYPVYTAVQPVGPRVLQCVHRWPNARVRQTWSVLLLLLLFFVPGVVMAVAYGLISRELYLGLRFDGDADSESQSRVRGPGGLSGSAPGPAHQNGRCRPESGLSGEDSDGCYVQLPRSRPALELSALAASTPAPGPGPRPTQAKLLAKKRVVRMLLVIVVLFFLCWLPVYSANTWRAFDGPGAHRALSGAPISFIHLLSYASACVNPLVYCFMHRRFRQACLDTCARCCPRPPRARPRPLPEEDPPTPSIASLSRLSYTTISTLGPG
Outline: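 Male guinea-pig cerebral cortex membranes (about 300 mcg protein/ml) incubated with non-sulphated [3-H]-labelled CCK-8 tracer and compound 150 minutes at 25° C. Pellet radioactivity counted by liquid scintillation; nonspecific binding defined with 5.10^-6 M CCK-8.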

mouse = assay: Black and White Box test in the mouse (anxiolytic activity); format: in vivo; settings: for LIGHT TIME TOTAL TIME / LIGHT-DARK MOVEMENTS / MOV. DARK % TOTAL MOV. / TOTAL MOVEMENTS: 5 minutes; for anxiolytic activity, result in words: Black and White Box test, IP; for increase in the number of light-dark movements in comparison with the controls: summary over doses
Procedure: It has recently been postulated that the central CCK-B receptor has an important role in anxiety. This is in accordance with studies also carried out in man, which have shown that the central CCK-B mechanisms have an important function in the mediation of panic attacks [Bradwejn, H. et al; J. Psychopharmacology 6 (1992), 345]. […] This experimental model, which was carried out according to Costall et al [Pharm. Biochem. Behav. 32 (1989), 777-785], used a box with dimensions of 45×21×21(h) cm divided into 2 compartments which communicated with one another through a 13×5 cm hole. The smaller compartment (1/3 of the total area) had black walls, whereas the larger had transparent walls and was illuminated by a lamp which was placed 20 cm above the box and supplied light at 20W. Under the floor there was an activity meter which recorded the movements performed by the animal in the individual compartments. The experiment was started by placing the animal in the centre of the illuminated box; as well as movements, the time which the animal spent in the dark and in the light areas and the number of movements between the 2 compartments were then recorded for 5 minutes. A control animal generally preferred to stay in the dark compartment where it felt better protected from an unusual environmental situation which put it in a state of anxiety. In this experimental model, a compound having anxiolytic activity decreased the % of movements into the dark in comparison with the total movements, increased the movements between the two light-dark compartments, and increased the % of time spent in the light in comparison with the total time.
The results obtained are shown in Table 7, where the activities obtained with compounds 9, 21 and 51 are given, tested in comparison with diazepam.

SMILES: O=C(CC[C@@H](NC(=O)c1cc(Cl)cc(Cl)c1)C(=O)N1CCC2(CCCC2)CC1)N[C@H](Cc1ccccc1)C(=O)O [Compound 9, (R,R)-1[(1-carboxy-2-phenylethyl)amino]-1 oxo-5-(8-azaspiro[4.5]decan-8-yl)-4-(3,5-dichloro-benzoylamino)-5-oxopentanoic acid]
- ED50 [1]: 12.3 mg/kg and 22.6 µmol/kg
- antigastrin activity relative to the diastereoisomer at the carbon atom (**) [1]: about twice
- times more active than the corresponding diastereoisomer at the carbon atom (**) (central CCK-B receptor): about 5 times
- IC50 (central CCK-B receptor; guinea-pig cortical membranes): 150 nM
- EFF. % VS CONTROL (LIGHT TIME TOTAL TIME) (mouse; 0.1 mg/kg IP): 17%
- EFF. % VS CONTROL (LIGHT-DARK MOVEMENTS) (mouse; 0.1 mg/kg IP): 6%
- EFF. % VS CONTROL (MOV. DARK % TOTAL MOV.) (mouse; 0.1 mg/kg IP): 0%
- LIGHT TIME TOTAL TIME (mouse; 0.1 mg/kg IP): 31.0%
- LIGHT-DARK MOVEMENTS (mouse; 0.1 mg/kg IP): 16.1
- MOV. DARK % TOTAL MOV. (mouse; 0.1 mg/kg IP): 59%
- TOTAL MOVEMENTS (mouse; 0.1 mg/kg IP): 505
- EFF. % VS CONTROL (LIGHT TIME TOTAL TIME) (mouse; 1.0 mg/kg IP): 36%
- EFF. % VS CONTROL (LIGHT-DARK MOVEMENTS) (mouse; 1.0 mg/kg IP): 31%
- EFF. % VS CONTROL (MOV. DARK % TOTAL MOV.) (mouse; 1.0 mg/kg IP): -7%
- LIGHT TIME TOTAL TIME (mouse; 1.0 mg/kg IP): 36.1%
- LIGHT-DARK MOVEMENTS (mouse; 1.0 mg/kg IP): 19.9
- MOV. DARK % TOTAL MOV. (mouse; 1.0 mg/kg IP): 55%
- TOTAL MOVEMENTS (mouse; 1.0 mg/kg IP): 493
- EFF. % VS CONTROL (LIGHT TIME TOTAL TIME) (mouse; 10.0 mg/kg IP): 26%
- EFF. % VS CONTROL (LIGHT-DARK MOVEMENTS) (mouse; 10.0 mg/kg IP): 16%
- EFF. % VS CONTROL (MOV. DARK % TOTAL MOV.) (mouse; 10.0 mg/kg IP): -7%
- LIGHT TIME TOTAL TIME (mouse; 10.0 mg/kg IP): 33.5%
- LIGHT-DARK MOVEMENTS (mouse; 10.0 mg/kg IP): 17.7
- MOV. DARK % TOTAL MOV. (mouse; 10.0 mg/kg IP): 55%
- TOTAL MOVEMENTS (mouse; 10.0 mg/kg IP): 503
- anxiolytic activity, result in words (mouse): anxiolytic activity without sedative activity
- increase in the number of light-dark movements in comparison with the controls (mouse): 20-30%

SMILES: O=C(CC[C@@H](NC(=O)c1cc(Cl)cc(Cl)c1)C(=O)N1CCC2(CCCC2)CC1)N[C@H](Cc1c[nH]c2ccccc12)C(=O)O [Compound 21]
- ED50 [1]: 7.9 mg/kg and 12.6 µmol/kg
- antigastrin activity relative to the diastereoisomer at the carbon atom (**) [1]: almost the same antigastrin activity
- times more active than the corresponding diastereoisomer at the carbon atom (**) (central CCK-B receptor): about 5 times
- inhibition of the binding of [N-methyl-N-leucine]CCK-8, result in words (central CCK-B receptor; guinea-pig cortical membranes): potent inhibitors
- IC50 (central CCK-B receptor; guinea-pig cortical membranes): 40 nM
- EFF. % VS CONTROL (LIGHT TIME TOTAL TIME) (mouse; 0.03 mg/kg IP): 11%
- EFF. % VS CONTROL (LIGHT-DARK MOVEMENTS) (mouse; 0.03 mg/kg IP): 26%
- EFF. % VS CONTROL (MOV. DARK % TOTAL MOV.) (mouse; 0.03 mg/kg IP): -6%
- LIGHT TIME TOTAL TIME (mouse; 0.03 mg/kg IP): 28.9%
- LIGHT-DARK MOVEMENTS (mouse; 0.03 mg/kg IP): 18.2
- MOV. DARK % TOTAL MOV. (mouse; 0.03 mg/kg IP): 62%
- TOTAL MOVEMENTS (mouse; 0.03 mg/kg IP): 522
- EFF. % VS CONTROL (LIGHT TIME TOTAL TIME) (mouse; 0.3 mg/kg IP): 30%
- EFF. % VS CONTROL (LIGHT-DARK MOVEMENTS) (mouse; 0.3 mg/kg IP): 37%
- EFF. % VS CONTROL (MOV. DARK % TOTAL MOV.) (mouse; 0.3 mg/kg IP): -1.1%
- LIGHT TIME TOTAL TIME (mouse; 0.3 mg/kg IP): 33.9%
- LIGHT-DARK MOVEMENTS (mouse; 0.3 mg/kg IP): 19.8
- MOV. DARK % TOTAL MOV. (mouse; 0.3 mg/kg IP): 57%
- TOTAL MOVEMENTS (mouse; 0.3 mg/kg IP): 499
- EFF. % VS CONTROL (LIGHT TIME TOTAL TIME) (mouse; 3.0 mg/kg IP): 24%
- EFF. % VS CONTROL (LIGHT-DARK MOVEMENTS) (mouse; 3.0 mg/kg IP): 26%
- EFF. % VS CONTROL (MOV. DARK % TOTAL MOV.) (mouse; 3.0 mg/kg IP): -9%
- LIGHT TIME TOTAL TIME (mouse; 3.0 mg/kg IP): 32.4%
- LIGHT-DARK MOVEMENTS (mouse; 3.0 mg/kg IP): 18.2
- MOV. DARK % TOTAL MOV. (mouse; 3.0 mg/kg IP): 60%
- TOTAL MOVEMENTS (mouse; 3.0 mg/kg IP): 495
- anxiolytic activity, result in words (mouse): anxiolytic activity without sedative activity
- increase in the number of light-dark movements in comparison with the controls (mouse): 20-30%
